Test results published in ChEMBL document CHEMBL3217485, “Understanding and overcoming aminoglycoside resistance caused by N-6'-acetyltransferase” (Medchemcomm, 2012).
In brackets after ≈: the same amount, converted by molar mass. Activity calls are given as the source filed them. No cut-off for these calls is given here. Where a SMILES comes first, the peptide text is derived from it.

Legend:
[1] = Binding affinity to AAC(6')-lb (unknown origin)
Escherichia coli = assay: Antibacterial activity against kanamycin-resistant Escherichia coli K-12 R5 expressing AAC(6') enzyme; format: functional
Pseudomonas aeruginosa = assay: Antibacterial activity against kanamycin-resistant Pseudomonas aeruginosa GN315 expressing AAC(6') enzyme; format: functional
[2] = Inhibition of AAC(6')-li (unknown origin)
[3] = Inhibition of AAC(6')-le (unknown origin)
Aac(6')-Ii protein = Aac(6')-Ii protein (Enterococcus faecium, UniProt Q47764); assay: Inhibition of Enterococcus faecium AAC(6')-li
[4] = Activity at AAC(6')-li (unknown origin)

Chain of Aac(6')-Ii protein (Q47764 whole entry): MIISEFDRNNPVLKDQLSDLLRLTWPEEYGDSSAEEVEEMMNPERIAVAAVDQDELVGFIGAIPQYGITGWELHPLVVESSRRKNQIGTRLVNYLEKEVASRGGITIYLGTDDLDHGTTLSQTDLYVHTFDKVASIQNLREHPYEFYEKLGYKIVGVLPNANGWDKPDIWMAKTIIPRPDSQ

Molecule: N#Cc1ccc(O[C@H]2C[C@H](N)C[C@@H]2N)cc1
- Kd [1]: 20 µM

Molecule: NC[C@@H]1CC[C@@H](N)[C@@H](O[C@H]2[C@H](O)[C@@H](O[C@H]3O[C@H](CO)[C@@H](O)[C@H](N)[C@H]3O)[C@H](N)C[C@@H]2N)O1 [DIBEKACIN]
- MIC (Escherichia coli): 25 µg/mL (≈ 55.4 µM)
- MIC (Pseudomonas aeruginosa): > 100 µg/mL

Molecule: H-ILKKWPWWPWRRK-OH
- IC50 [2]: 23 µM
- inhibition [3]: inactive

Molecule: CC(C)(CO)[C@@H](O)C(=O)NCCC(=O)NCCSCCC(=O)NC[C@H]1O[C@H](O[C@H]2[C@H](O)[C@@H](O)[C@H](N)C[C@@H]2N)[C@H](N)[C@@H](O)[C@@H]1O
- Ki (Aac(6')-Ii protein): ≥ 500 µM

Molecule: CC[C@H](C)[C@H](NC(=O)[C@H](CC(C)C)NC(=O)[C@H](C)NC(=O)[C@@H]1CCCN1C(=O)[C@H](CC(C)C)NC(=O)CNC(=O)[C@@H](NC(=O)[C@@H](NC(=O)[C@H](CC(C)C)NC(=O)[C@@H](NC(=O)[C@H](CCCCN)NC(=O)[C@H](CCCCN)NC(=O)[C@@H](NC(=O)[C@H](C)NC(=O)[C@@H](NC(=O)[C@@H](NC(=O)[C@H](CC(C)C)NC(=O)[C@H](CCCCN)NC(=O)[C@H](CCCCN)NC(=O)[C@@H](NC(=O)[C@H](Cc1ccccc1)NC(=O)[C@H](CO)NC(=O)[C@H](CCCCN)NC(=O)[C@H](Cc1c[nH]c2ccccc12)NC(=O)[C@@H](N)CCCCN)[C@@H](C)CC)[C@@H](C)O)[C@@H](C)O)C(C)C)C(C)C)[C@@H](C)O)[C@@H](C)O)C(=O)N[C@@H](CO)C(=O)O
- inhibition [2]: inactive
- IC50 [3]: 21 µM

Molecule: CC(C)(CO)[C@@H](O)C(=O)NCCC(=O)NCCSCCCCCC(=O)NC[C@H]1O[C@H](O[C@H]2[C@H](O)[C@@H](O)[C@H](N)C[C@@H]2N)[C@H](N)[C@@H](O)[C@@H]1O
- Ki (Aac(6')-Ii protein): ≥ 500 µM

Molecule: N[C@H]1C[C@H](Oc2ccccc2[N+](=O)[O-])[C@@H](N)C1
- Kd [1]: 23 µM

Molecule: CNC[C@H]1O[C@H](O[C@H]2[C@H](O)[C@@H](O[C@@H]3O[C@@H](CO)[C@H](O)[C@@H](N)[C@@H]3O)[C@H](N)C[C@@H]2N)[C@H](O)[C@@H](O)[C@@H]1O
- MIC (Escherichia coli): 1.56 µg/mL (≈ 3.13 µM)
- MIC (Pseudomonas aeruginosa): > 100 µg/mL

Molecule: CC[C@H](C)[C@H](N)C(=O)N[C@@H](CC(C)C)C(=O)N1CCC[C@H]1C(=O)N[C@@H](Cc1c[nH]c2ccccc12)C(=O)N[C@@H](CCCCN)C(=O)N[C@@H](Cc1c[nH]c2ccccc12)C(=O)N1CCC[C@H]1C(=O)N[C@@H](Cc1c[nH]c2ccccc12)C(=O)N[C@@H](Cc1c[nH]c2ccccc12)C(=O)N1CCC[C@H]1C(=O)N[C@@H](Cc1c[nH]c2ccccc12)C(=O)N[C@@H](CCCN=C(N)N)C(=O)N[C@@H](CCCN=C(N)N)C(N)=O
- IC50 [2]: 13 µM
- inhibition [3]: inactive

Molecule: CC(=O)CC(=O)N(CCc1ccccc1)CC(C)(C)[C@@H](O)C(=O)NCCC(=O)NCCSCC(=O)NC[C@H]1O[C@H](O[C@H]2[C@H](O)[C@@H](O)[C@H](N)C[C@@H]2N)[C@H](N)[C@@H](O)[C@@H]1O
- Ki (Aac(6')-Ii protein): ≥ 200 µM

Molecule: H-ILAWKWAWWAWRR-OH
- IC50 [2]: 4.4 µM
- inhibition [3]: inactive

Molecule: H-KWKSFIKKLTSAAKKVTTAAKPLTK-OH
- inhibition [2]: inactive
- IC50 [3]: 38 µM

Molecule: CC(=O)CC(=O)N(CCCc1ccccc1)CC(C)(C)[C@@H](O)C(=O)NCCC(=O)NCCSCC(=O)NC[C@H]1O[C@H](O[C@H]2[C@H](O)[C@@H](O)[C@H](N)C[C@@H]2N)[C@H](N)[C@@H](O)[C@@H]1O
- Ki (Aac(6')-Ii protein): ≥ 200 µM

Molecule: NC[C@@H]1O[C@@H](O[C@H]2[C@H](O)[C@@H](O[C@H]3O[C@H](CO)[C@@H](O)[C@H](N)[C@H]3O)[C@H](N)C[C@@H]2N)[C@@H](O)[C@H](O)[C@H]1O [KANAMYCIN A]
- MIC (Escherichia coli): 25 µg/mL (≈ 51.6 µM)
- MIC (Pseudomonas aeruginosa): > 100 µg/mL

Molecule: CC(=O)CC(=O)N(Cc1ccccc1)CC(C)(C)[C@@H](O)C(=O)NCCC(=O)NCCSCC(=O)NC[C@H]1O[C@H](O[C@H]2[C@H](O)[C@@H](O)[C@H](N)C[C@@H]2N)[C@H](N)[C@@H](O)[C@@H]1O
- Ki (Aac(6')-Ii protein): ≥ 200 µM

Molecule: CC(C)(COP(=O)(O)OP(=O)(O)OC[C@H]1O[C@@H](n2cnc3c(N)ncnc32)[C@H](O)[C@@H]1OP(=O)(O)O)[C@@H](O)C(=O)NCCC(=O)NCCSCC(=O)NC[C@H]1O[C@H](O[C@H]2[C@H](O)[C@@H](O)[C@H](N)C[C@@H]2N)[C@H](N)[C@@H](O)[C@@H]1O
- Ki [2]: 0.076 µM

Molecule: CC(C)C[C@H](NC(=O)[C@H](CCCNC(=N)N)NC(=O)CNC(=O)CNC(=O)[C@@H](N)CCCNC(=N)N)C(=O)N[C@@H](CS)C(=O)N[C@@H](Cc1ccc(O)cc1)C(=O)N[C@@H](CS)C(=O)N[C@@H](CCCNC(=N)N)C(=O)N[C@@H](CCCNC(=N)N)C(=O)N[C@@H](CCCNC(=N)N)C(=O)N[C@@H](Cc1ccccc1)C(=O)N[C@@H](CS)C(=O)N[C@H](C(=O)N[C@@H](CS)C(=O)N[C@H](C(=O)NCC(=O)N[C@@H](CCCNC(=N)N)C(=O)O)C(C)C)C(C)C (H-RGGRLCYCRRRFCVCVGR-OH)
- inhibition [2]: inactive
- inhibition [3]: inactive

Molecule: Nc1cccc(C(=O)O[C@H]2C[C@H](N)C[C@@H]2N)c1
- Kd [1]: 57 µM

Molecule: NCC(=O)NC[C@H]1O[C@H](O[C@H]2[C@H](O)[C@@H](O)[C@H](N)C[C@@H]2N)[C@H](N)[C@@H](O)[C@@H]1O
- Km [4]: > 500 µM
